Results: ChEMBL document CHEMBL4152278 (Eur J Med Chem, 2018)

Each molecule was assayed on Influenza A virus (assay: Antiviral activity against Influenza A virus (A/WSN/1933(H1N1)) infected in MDCK cells expressing neuraminidase H275Y mutant assessed as protection against virus-induced cytopathic effect after 48 hrs by CellTiter96 aqueous non-radioactive cell proliferation assay).
Type: functional, organism-based

Structure (SMILES)	EC50 [nM]
CCC(CC)O[C@@H]1C=C(C(=O)O)C[C@H](N/C(N)=N/C(=O)[C@@H](C)c2ccc3cc(OC)ccc3c2)[C@H]1NC(C)=O	19000
CCCCCCCC(=O)/N=C(\N)N[C@H]1C=C(C(=O)O)O[C@@H]([C@H](O)[C@H](O)CO)[C@@H]1NC(C)=O	480
COc1ccc2cc([C@H](C)C(=O)/N=C(\N)N[C@H]3C=C(C(=O)O)O[C@@H]([C@H](O)[C@H](O)CO)[C@@H]3NC(C)=O)ccc2c1	900
CCCCCCCC(=O)/N=C(\N)N[C@H]1CC(C(=O)O)=C[C@@H](OC(CC)CC)[C@@H]1NC(C)=O	6600
CCC(CC)O[C@@H]1C=C(C(=O)O)C[C@H](NC(=N)N)[C@H]1NC(C)=O	2100
CCC(CC)O[C@@H]1C=C(C(=O)O)C[C@H](N)[C@H]1NC(C)=O [OSELTAMIVIR CARBOXYLATE]	26000
CC(=O)N[C@H]1[C@H]([C@H](O)[C@H](O)CO)OC(C(=O)O)=C[C@@H]1NC(=N)N [ZANAMIVIR]	150
